The results in this text go back to patent EP0888346B1, “CORALYNE ANALOGS AS TOPOISOMERASE INHIBITORS” (RUTGERS, THE STATE UNIVERSITY OF NEW JERSEY, priority 1996, dated 1997).

In brackets after ≈: the same amount, converted by molar mass. Read-outs that look alike come from different tables or passages of the source. Where only a bound is given, the exact number is not on record here.

One series concerns the target T1, human topoisomerase I (Homo sapiens, UniProt P11387).
T1 construct: 15 amino acid vector-derived fusion (pET-11a leader); made in house; host or cells: E. coli BL21(DE3)
T1 sequence (P11387 1-765): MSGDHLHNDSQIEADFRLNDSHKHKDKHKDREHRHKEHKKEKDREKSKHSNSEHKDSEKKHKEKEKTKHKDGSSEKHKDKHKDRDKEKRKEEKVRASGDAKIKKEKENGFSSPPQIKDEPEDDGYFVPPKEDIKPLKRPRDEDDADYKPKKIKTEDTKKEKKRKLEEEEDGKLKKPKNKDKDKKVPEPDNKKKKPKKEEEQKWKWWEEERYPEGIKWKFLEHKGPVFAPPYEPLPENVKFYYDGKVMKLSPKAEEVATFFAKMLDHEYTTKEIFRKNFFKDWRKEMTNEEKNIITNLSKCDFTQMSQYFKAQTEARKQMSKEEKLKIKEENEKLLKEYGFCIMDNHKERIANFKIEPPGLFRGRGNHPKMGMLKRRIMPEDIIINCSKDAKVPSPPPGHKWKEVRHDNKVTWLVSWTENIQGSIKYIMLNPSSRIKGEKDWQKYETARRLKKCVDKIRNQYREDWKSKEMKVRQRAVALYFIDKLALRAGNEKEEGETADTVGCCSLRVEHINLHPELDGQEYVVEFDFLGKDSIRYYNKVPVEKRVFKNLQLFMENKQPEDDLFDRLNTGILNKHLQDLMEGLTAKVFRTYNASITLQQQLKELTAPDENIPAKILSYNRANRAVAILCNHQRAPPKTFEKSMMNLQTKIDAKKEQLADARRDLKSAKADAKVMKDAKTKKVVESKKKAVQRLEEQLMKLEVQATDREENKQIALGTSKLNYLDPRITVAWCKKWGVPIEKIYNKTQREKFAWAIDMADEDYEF
Kind of series: Topo I cleavage assay (plasmid YEpG DNA). Conditions: concentration relative to camptothecin (CPT) = 1 producing the same cleavage on the plasmid DNA. It counts as biochemical. An excerpt: To obtain large quantity of human topoisomerase I, the human topoisomerase I cDNA was cloned into the pET-11a vector, in which transcription of the cDNA is under the control of the inducible T7 promoter (Studier et al., Methods in Enzymol., Vol. 185:60-89, San Diego: Academic Press (1990)). Briefly, a 3.4 kb DNA fragment containing the entire coding sequence of human topoisomerase I and approximately 1 kb of untranslated region downstream of the stop codon was isolated from the plasmid YCpGAL1-hTOP1 (Bjornsti et al., Cancer Res. 49:6318-6323 (1989)) by cutting at the BamHI and EcoRI sites. The vector pET-11a was cut with the same restriction enzymes, dephosphorylated and ligated to the insert in the proper reading-frame downstream of the vector cloning site. The ligation mixture was used to transform E. coli, the correct clone pET1B was isolated (see figure 2A for the map) and its identity confirmed by restriction mapping. Since the translational start in pET is positioned at an upstream NdeI site, the expressed topoisomerase I has a 15 amino acid fusion at its N-terminus. pET1B was then transformed into E. coli BL21(DE3), and, upon induction with 0.4 mM IPTG for 1 hour, the bacterial lysate was analyzed by 10 % SDS-PAGE. Expression was confirmed by Western blotting using rabbit antibodies against human topoisomerase I. Isolation of the expressed protein was done by a simple procedure. Briefly, E. coli cells were lysed by repeated sonic bursts. The sonic extract was made in 1 M NaCl and 6% polyethylene glycol (PEG) to remove nucleic acids. The PEG supernatant was chromatographed directly on a hydroxyapatite column. Expressed human DNA topoisomerase I was eluted at the 0.6 M potassium phosphate step. The eluted enzyme was dialyzed against 50% glycerol, 30 mM potassium phosphate (pH 7.0), 1 mM dithiothreitol (DTT) and 0.1 mM EDTA and stored at -20°C.
(§1) Cleavage assays for the recombinant topoisomerases I and calf thymus topoisomerases I and II were done as described (Liu et al., J. Biol. Chem. 258:15365-15370 (1983)). The plasmid YEpG DNA used for the cleavage assays was prepared and labeled at its 3'-end using the published procedures.

In series [1] the test system is calf thymus topoisomerase II. The series can be described thus: Topo II cleavage assay (plasmid YEpG DNA). It counts as biochemical. Conditions: concentration relative to VM-26 = 1 producing the same cleavage on the plasmid DNA.
Source text: The plasmid pET11a and the E. coli strain BL21(DE3) used for enzyme expression were purchased from Novagen. IPTG was purchased from Sigma. The ECL system used for the Western blotting analysis of bacterial lysates was from Amersham (UK). All the restriction enzymes and Vent polymerase were from New England Biolabs. Mammalian topoisomerase II was isolated from calf thymus glands according to the published procedure (Halligan et al., J. Biol. Chem. 260:2475-2482 (1985)). The single copy yeast plasmids YCpGAL1 expressing various topoisomerase I genes in JN2-134 yeast strain were a kind gift of Dr. M-A. Bjornsti (Thomas Jefferson University, Philadelphia, PA). All bacterial and yeast media were from Difco (Detroit, MI), while cell culture media were purchased from Gibco-BRL (Gaithersburg, MD).
as §1

The subject of series [2] is Human lymphoblast RPMI 8402 cells. Kind of series: MTT-microtiter plate tetrazolinium cytotoxicity assay (MTA). It counts as cell-based. An excerpt:
(§2) The results were plotted and the IC50 then measured.

Series [3] relates to camptothecin-resistant CPT-K5 cells. The series can be described thus: MTT-microtiter plate tetrazolinium cytotoxicity assay (MTA), camptothecin-resistant cells. On the procedure:
The IC50 of the drugs tested were determined by the MTT-microtiter plate tetrazolinium cytotoxicity assay (MTA) (Mosmann, T., J. Immunol. Methods 65:55-63 (1983); Denizot et al., J. Immunol. Methods 89:271-277 (1986)). Human lymphoblast RPMI 8402 cells and their camptothecin-resistant CPT-K5 cells (Andoh et al., Proc. Natl. Acad. Sci., USA 84:5565-5569 (1987)) were kindly provided by Dr. Toshiwo Andoh (Aichi Cancer Center Research Institute, Nagoya, Japan). […] Cells (2000 cells/well, seeded in […] growth medium) were grown in suspension at 37°C in 5% CO2 and maintained by regular passage in RPMI medium supplemented with 10% heat inactivated fetal bovine serum, L-glutamine (2 mM), penicillin (100 U/ml), and streptomycin (0.1 mg/ml). The cells were exposed continuously for 4 days to different drug concentrations, and assayed at the end of the fourth day. Each concentration and the no drug control were repeated at least twice in 6 replica wells. The results were plotted and the IC50 then measured. The drug sensitive human epidermoid carcinoma KB 3-1 cell line and its vinblastine-selected multidrug-resistant variant KB-V1 cells (Akiyama et al., Genetics 11:117-126 (1985)) were kindly provided by Dr. Michael Gottesmann (National Cancer Institute). They were grown as monolayer cultures at 37°C in 5% CO2 and maintained by regular passage in Dulbecco's minimal essential medium supplemented with 10% heat inactivated fetal bovine serum. KB-V1 cells were maintained in the presence of […] vinblastine.

Series [4] deals with human epidermoid carcinoma KB 3-1 cell line. The series can be described thus: MTA cytotoxicity assay, epidermoid carcinoma cells. The class given is cell-based. Conditions: KB 3-1, 96 h. On the procedure:
as §2
(§3) The coralyne analog 7c was tested for its effectiveness against glioblastoma cells. The assay used was similar to that described above for the RPMI-8402 cell line. The results are shown in table 2 below which compares the effect of Compound 7c against the leukemia cell line (RPMI 8402), epidermal carncinoma (KB3-1) and glioblastoma (SF-268): Table 2

Series [5] has as its system glioblastoma cell line SF-268. Kind of series: MTA cytotoxicity assay, glioblastoma cells. Conditions: for IC50: Homo sapiens, SF-268, 96 h, read-out: Cytotoxicity SF-268. It counts as cell-based. On the procedure:
as §2, §3

Where [6] appears, read: Homo sapiens, RPMI 8402, 96 h, read-out: Cytotoxicity IC50 RPMI.
Setting [7] is: Homo sapiens, CPT-K5, 96 h, read-out: Cytotoxicity IC50 CPT-K5.

Turning to `COc1cc2cc(-c3ccc4c(c3)OCO4)nc(C)c2cc1OC` [Compound 12b, 6,7-Dimethoxy-1-methyl-3-(3,4-methylenedioxyphenyl)isoquinoline], the “Topo I-mediated DNA cleavage (REC, Relative Effective Concentration)” value at human topoisomerase I came out at 1000. Besides, the “Topo II-mediated DNA cleavage (REC, Relative Effective Concentration)” value in series [1] is over 1000. The IC50 in series [2] (setting [6]) amounted to 22 µM; in series [3] (setting [7]) it was 31 µM.

Regarding `COc1ccc(Cc2nccc3c4c(ccc23)OCO4)cc1OC` [Compound 9c, 5,6-Methylenedioxy-1-(3,4-dimethoxybenzyl)isoquinoline], the “Topo I-mediated DNA cleavage (REC, Relative Effective Concentration)” value at human topoisomerase I was over 1000. For the same molecule, the “Topo II-mediated DNA cleavage (REC, Relative Effective Concentration)” value in series [1] is given as over 1000. Also, in series [2], the “cytotoxicity against RPMI 8402 cells (in words)” value is “appreciable cytotoxicity”. For the same molecule, the IC50 in series [2] (setting [6]) worked out at 9.3 µM; in series [3] (setting [7]), 15 µM.

`COc1cc2cc3[n+](c(C)c2cc1OC)CCc1c-3ccc(OC)c1OC` [Compound 7b, 5,6-Dihydro-8-methyl-3,4,10,11-tetramethoxydibenzo[a,g]quinolizinium acetosulfate]: the “Topo I-mediated DNA cleavage (REC, Relative Effective Concentration)” value at human topoisomerase I was determined as 1000. For the same molecule, in series [1], the “Topo II-mediated DNA cleavage (REC, Relative Effective Concentration)” value is 1000. Also, the results for the IC50 in series [2] (setting [6]) and in series [3] (setting [7]) were 6.9 µM and 14 µM, respectively.

For “8-Methyl-3,4,10,11-tetramethoxydibenzo[a,g]quinolizinium acetosulfate [Compound 2b]”, at human topoisomerase I, the “Topo I-mediated DNA cleavage (REC, Relative Effective Concentration)” value is reported as over 1000. The “Topo II-mediated DNA cleavage (REC, Relative Effective Concentration)” value in series [1] is listed as 100. In addition, the IC50 in series [2] (rpmi 8402 cells, 96 h) was 0.4 µM; in series [3] (cpt-k5 cells, 96 h), 2 µM.

As for `COc1cc2cc3c4ccc5c(c4cc[n+]3cc2cc1OC)OCO5.[Cl-]` [Compound 10c, 3,4-Methylenedioxy-10,11-dimethoxydibenzo[a,g]quinolizinium chloride], at human topoisomerase I, the “Topo I-mediated DNA cleavage (REC, Relative Effective Concentration)” value was 10. Also, in series [1], the “Topo II-mediated DNA cleavage (REC, Relative Effective Concentration)” value was 2. In addition, the IC50 in series [2] (setting [6]) is 0.8 µM; in series [3] (setting [7]), 6.8 µM.

On to “8-Methyl-2,3,10,11-Tetramethoxydibenzo[a,g]quinolizinium acetosulfate [Compound 2a]”, for which, on human topoisomerase I, the “Topo I-mediated DNA cleavage (REC, Relative Effective Concentration)” value is 10. The “Topo II-mediated DNA cleavage (REC, Relative Effective Concentration)” value in series [1] is on record as over 1000. In addition, the IC50 came to 4.9 µM in series [2] (rpmi 8402 cells, 96 h) and 20 µM in series [3] (cpt-k5 cells, 96 h).

Turning to `COc1cc2cc3[n+](c(C)c2cc1OC)CCc1c-3ccc2c1OCO2` [Compound 7c, 5,6-Dihydro-8-methyl-3,4-methylenedioxy-10,11-dimethoxydibenzo[a,g]quinolizinium acetosulfate], at human topoisomerase I, the “Topo I-mediated DNA cleavage (REC, Relative Effective Concentration)” value came out at 10. Besides, the “Topo II-mediated DNA cleavage (REC, Relative Effective Concentration)” value in series [1] was 30. In addition, the IC50 in series [2] (setting [6]) is 0.6 µM; in series [2] (Homo sapiens, RPMI 8402, 96 h, read-out: Cytotoxicity RPMI 8402) it was 0.3 µg/mL; in series [3] (setting [7]), 6.1 µM; in series [4] (read-out: Cytotoxicity KB3-1), 0.06 µg/mL; in series [5], 0.008 µg/mL. For the same molecule, the “cytotoxicity against glioblastoma cells (in words)” value in series [5] was “exceptional cytotoxicity”.

For the molecule `COc1cccc2c1C(=O)c1c(O)c3c(c(O)c1C2=O)C[C@@](O)(C(=O)CO)C[C@@H]3O[C@H]1C[C@H](N)[C@H](O)[C@H](C)O1` [doxorubicine], the IC50 in series [2] (Homo sapiens, RPMI 8402, 96 h, leukemia cell line, Table 2, read-out: Cytotoxicity RPMI 8402) came out at 0.8 µg/mL; in series [4] (epidermal carcinoma, Table 2, read-out: Cytotoxicity KB3-1), 0.1 µg/mL (≈ 0.184 µM); in series [5] (glioblastoma, Table 2), 0.8 µg/mL (≈ 1.47 µM).

For the molecule `COc1cc2cc3c4ccc(OC)c(OC)c4cc[n+]3cc2cc1OC.[Cl-]` [Compound 10b, 3,4,10,11-Tetramethoxydibenzo[a,g]quinolizinium chloride], the “Topo I-mediated DNA cleavage (REC, Relative Effective Concentration)” value on human topoisomerase I is listed as over 1000. Also, in series [1], the “Topo II-mediated DNA cleavage (REC, Relative Effective Concentration)” value was 100. The IC50 turned out to be 2.6 µM in series [2] (setting [6]) and 5.2 µM in series [3] (setting [7]).

Turning to `Cc1nc(-c2ccc(O)c(O)c2)cc2cc(O)c(O)cc12` [Compound 13, 6,7-Dihydroxy-1-methyl-3-(3,4-dihydroxyphenyl)isoquinoline], at human topoisomerase I, the “Topo I-mediated DNA cleavage (REC, Relative Effective Concentration)” value is listed as over 1000. In addition, the “Topo II-mediated DNA cleavage (REC, Relative Effective Concentration)” value in series [1] is over 1000. In addition, in series [2], the “cytotoxicity against RPMI 8402 cells (in words)” value is “appreciable cytotoxicity”. The IC50 in series [2] (setting [6]) came out at 7.1 µM; in series [3] (setting [7]), 99 µM.
